{"source": "patent EP0091755A1", "about": "“Penicillin derivatives, a process for their preparation and compositions containing them” (BEECHAM GROUP PLC, priority 1982, dated 1983)", "format_in_all_cases": "cell-based", "key": {"[1]": {"system": "E Coli JT 425", "assay": "Antibacterial activity (MIC) against E Coli JT 425"}, "[2]": {"system": "Klebsiella aerogenes A", "assay": "Antibacterial activity (MIC) against Klebsiella aerogenes A"}, "[3]": {"system": "Staph. aureus Oxford", "assay": "Antibacterial activity (MIC) against Staph. aureus Oxford", "settings": "Staphylococcus aureus"}, "[4]": {"system": "Ps aeruginosa 10662", "assay": "Antibacterial activity (MIC) against Ps aeruginosa 10662"}, "[5]": {"system": "P mirabilis C977", "assay": "Antibacterial activity (MIC) against P mirabilis C977"}, "[6]": {"settings": "Escherichia coli, E. Coli JT 425, table, read-out: Antibacterial activities (MIC)"}, "[7]": {"settings": "Klebsiella Aerogenes A, table, read-out: Antibacterial activities (MIC)"}, "[8]": {"settings": "Staph Aureus Oxford, table, read-out: Antibacterial activities (MIC)"}, "[9]": {"settings": "Pseudomonas aeruginosa, Ps. Aeruginosa 10662, table, read-out: Antibacterial activities (MIC)"}, "[10]": {"settings": "Proteus mirabilis, P. Mirabilis C977, table, read-out: Antibacterial activities (MIC)"}, "[11]": {"settings": "Klebsiella aerogenes A, example, read-out: Antibacterial activity (MIC)"}, "[12]": {"settings": "Staph. aureus Oxford, example, read-out: Antibacterial activity (MIC)"}, "[13]": {"settings": "Ps aeruginosa 10662, example, read-out: Antibacterial activity (MIC)"}, "[14]": {"settings": "P mirabilis C977, example, read-out: Antibacterial activity (MIC)"}}, "note": "Read-outs that look alike come from different tables or passages of the source.", "data": [{"smiles": "CO[C@@]1(NC(=O)C(NC(=O)Nc2cnc(Nc3ccc(S(N)(=O)=O)cc3)nc2O)c2ccc(F)cc2)C(=O)N2[C@@H](C(=O)O)C(C)(C)S[C@@H]21", "note": "(stereo partly drawn) [Example 8, Sodium 6,B-[D,L-2-[3-[2-(4-aminosulphonylphenylamino)-4-hydroxy-pyrimidin-5-yl]ureido]-2-(4-fluorophenyl)-acetamido]-6,a-methoxypenicillanic.]", "values": [{"measurement": "MIC", "setting": "[1]; [6]", "result": 16, "unit": "µg/mL"}, {"measurement": "MIC", "setting": "[2]; [7]", "result": 8, "unit": "µg/mL"}, {"measurement": "MIC", "setting": "[3]; [8]", "result": 64, "unit": "µg/mL"}, {"measurement": "MIC", "setting": "[4]; [9]", "result": 128, "unit": "µg/mL"}, {"measurement": "MIC", "setting": "[5]; [10]", "result": 8, "unit": "µg/mL"}]}, {"smiles": "CO[C@@]1(NC(=O)C(NC(=O)Nc2cnc(Nc3ccc(S(N)(=O)=O)cc3)nc2O)c2ccccc2F)C(=O)N2[C@@H](C(=O)O)C(C)(C)S[C@@H]21", "note": "(stereo partly drawn) [Example 7, Sodium 6,B-[D,L-2-[3-[2-(4-aminosulphonylphenylamino) -4-hydroxypyrimidin-5-yl]ureido]-2-(2-fluorophenyl)acetamido]-6,a-methoxypenicillanate]", "values": [{"measurement": "MIC", "setting": "[1]; [6]", "result": 1, "unit": "µg/mL"}, {"measurement": "MIC", "setting": "[2]; [7]", "result": 0.25, "unit": "µg/mL"}, {"measurement": "MIC", "setting": "[3]; [8]", "result": 16, "unit": "µg/mL"}, {"measurement": "MIC", "setting": "[4]; [9]", "result": 16, "unit": "µg/mL"}, {"measurement": "MIC", "setting": "[5]; [10]", "result": 1, "unit": "µg/mL"}]}, {"smiles": "CO[C@@]1(NC(=O)C(NC(=O)Nc2cnc(Nc3ccc(S(N)(=O)=O)cc3)nc2O)c2ccc(OC(C)=O)c(OC(C)=O)c2)C(=O)N2[C@@H](C(=O)O)C(C)(C)S[C@@H]21", "note": "(stereo partly drawn) [Example 9, Sodium 6,B-[D,L-2-[3-[2-(4-aminosulphonylphenylamino)-4-hydroxypyrimidin-5-yl]ureido]-2-(3,4-diacetoxyphenyl)acetamido]-6,a-methoxypenicillanate]", "values": [{"measurement": "MIC", "setting": "[1]; [6]", "result": 1, "unit": "µg/mL"}, {"measurement": "MIC", "setting": "[2]; [7]", "result": "< 0.06", "unit": "µg/mL"}, {"measurement": "MIC", "setting": "[3]; [8]", "result": "< 128", "unit": "µg/mL"}, {"measurement": "MIC", "setting": "[4]; [9]", "result": 1, "unit": "µg/mL"}, {"measurement": "MIC", "setting": "[5]; [10]", "result": 2, "unit": "µg/mL"}]}, {"smiles": "CO[C@@]1(NC(=O)[C@H](NC(=O)Nc2cnc(Nc3ccc(S(N)(=O)=O)cc3)nc2O)c2ccc(O)cc2)C(=O)N2[C@@H](C(=O)O)C(C)(C)S[C@@H]21", "note": "[Example 3, Sodium 6,β-[D-2-[3-[2-(4-aminosulphonylphenylamino)-4-hydroxypyrimidin-5-yl]ureido]-2-(4-hydroxyphenyl)acetamido]-6,a-methoxypenicillanate]", "values": [{"measurement": "MIC", "setting": "[1]; E Coli JT 425, example, read-out: Antibacterial activity (MIC)", "result": 2.5, "unit": "µg/mL"}, {"measurement": "MIC", "setting": "[2]; [11]", "result": 0.2, "unit": "µg/mL"}, {"measurement": "MIC", "setting": "[3]; [12]", "result": 50, "unit": "µg/mL"}, {"measurement": "MIC", "setting": "[4]; [13]", "result": 25, "unit": "µg/mL"}, {"measurement": "MIC", "setting": "[5]; [14]", "result": 1.25, "unit": "µg/mL"}]}, {"smiles": "CO[C@@]1(NC(=O)C(NC(=O)Nc2cnc(Nc3ccc(S(N)(=O)=O)cc3)nc2O)c2ccco2)C(=O)N2[C@@H](C(=O)O)C(C)(C)S[C@@H]21", "note": "(stereo partly drawn) [Example 6, Sodium 6,β-[D,L-2-[3-[2-(4-aminosulphonylphenylamino), -4-hydroxypyrimidin-5-yl]-ureido]-2-(furan-2-yl)acetamido]-6,a-methoxy penicillanate]", "values": [{"measurement": "MIC", "setting": "[1]; [6]", "result": 8, "unit": "µg/mL"}, {"measurement": "MIC", "setting": "[2]; [7]", "result": 0.12, "unit": "µg/mL"}, {"measurement": "MIC", "setting": "[3]; [8]", "result": 16, "unit": "µg/mL"}, {"measurement": "MIC", "setting": "[4]; [9]", "result": 32, "unit": "µg/mL"}, {"measurement": "MIC", "setting": "[5]; [10]", "result": 2, "unit": "µg/mL"}]}, {"smiles": "CO[C@@]1(NC(=O)[C@H](NC(=O)Nc2cnc(Nc3ccc(S(N)(=O)=O)cc3)nc2O)c2ccccc2)C(=O)N2[C@@H](C(=O)O)C(C)(C)S[C@@H]21", "note": "[Example 1, Sodium 6,β-(D-2-[3-[2-(4-aminosulphonylphenylamino)-4-hydroxypyrimidin-5-yl]ureido]-2-phenylacetamido] -6,a-methoxypenicillanate]", "values": [{"measurement": "MIC", "setting": "[2]; [11]", "result": 2.5, "unit": "µg/mL"}, {"measurement": "MIC", "setting": "[3]; [12]", "result": 10, "unit": "µg/mL"}, {"measurement": "MIC", "setting": "[4]; [13]", "result": 50, "unit": "µg/mL"}, {"measurement": "MIC", "setting": "[5]; [14]", "result": 2.5, "unit": "µg/mL"}]}, {"smiles": "CO[C@@]1(NC(=O)[C@H](NC(=O)Nc2cnc(Nc3ccc(S(N)(=O)=O)cc3)nc2O)c2cccs2)C(=O)N2[C@@H](C(=O)O)C(C)(C)S[C@@H]21", "note": "[Example 4, Sodium 6β-[D-2-[3-[2-(4-aminosulphonylphenylamino)-4-hydroxypyrimidin-5-yl]ureido]-2-(thien-2-yl)acetamido]-6,a-methoxypenicillanate.]", "values": [{"measurement": "MIC", "setting": "[1]; [6]", "result": 1, "unit": "µg/mL"}, {"measurement": "MIC", "setting": "[2]; [7]", "result": 0.2, "unit": "µg/mL"}, {"measurement": "MIC", "setting": "[3]; [8]", "result": 10, "unit": "µg/mL"}, {"measurement": "MIC", "setting": "[4]; [9]", "result": 10, "unit": "µg/mL"}, {"measurement": "MIC", "setting": "[5]; [10]", "result": 1, "unit": "µg/mL"}]}, {"smiles": "CO[C@@]1(NC(=O)[C@@H](NC(=O)Nc2cnc(Nc3ccc(S(N)(=O)=O)cc3)nc2O)c2cccs2)C(=O)N2[C@@H](C(=O)O)C(C)(C)S[C@@H]21", "note": "[Example 5, Sodium 6,β-[L-2-[3-[2-(4 aminosulphonylphenylamino)-4-hydroxy-pyrimidin-5-yl]ureido]-2-thien-2-y-)acetamido]-6α methoxypenicillanate]", "values": [{"measurement": "MIC", "setting": "[1]; [6]", "result": 2.5, "unit": "µg/mL"}, {"measurement": "MIC", "setting": "[2]; [7]", "result": 1, "unit": "µg/mL"}, {"measurement": "MIC", "setting": "[3]; [8]", "result": 25, "unit": "µg/mL"}, {"measurement": "MIC", "setting": "[4]; [9]", "result": 50, "unit": "µg/mL"}, {"measurement": "MIC", "setting": "[5]; [10]", "result": 2.5, "unit": "µg/mL"}]}]}
